In a melting point compilation (Tetko et al.; mined from patent text by program, amines drawn as free bases though some values may be those of a salt):

Structure (SMILES) | melting point
CCOC(Cc1ccc(OCCN2CCC(C)(C)c3cc(C(=NOC)c4ccccc4)ccc32)cc1)C(=O)O (configuration not stated) | 62 to 64 °C
CCCCCCCCCCCCCCOc1ccc2ccc(=O)oc2c1 | 59 to 60 °C
NC(=O)Cn1ccc2cccc(NC(c3ccc4c(cnn4-c4ccc(F)cc4)c3)C(F)(F)F)c21 (configuration not stated) | 105 °C
Cn1nc(C(F)(F)F)cc1-c1ccc(CN2CCN(c3ccc(OCC4CCn5cc([N+](=O)[O-])nc5O4)cc3)CC2)s1 (configuration not stated) | 180 to 181 °C
O=COCCCCCC(=O)NC[C@@H]1CN2C(=O)C[C@H]2O1 (racemic) | 61.5 to 63 °C
COc1cc(OCC(=O)O)c(C)cc1SCCc1ccc(-c2ccc(C(F)(F)F)cc2)cc1 | 169 to 171 °C
O=c1c2nc(Br)n(Cc3ccccc3)c2ncn1Cc1ccccc1 | 161 to 162 °C
OCc1cc(-c2ccc(Cl)cc2)on1 | 93 to 95 °C
C=CC1OC(=O)N2c3ccc(O)cc3CCC12 (configuration not stated) | 250 °C
CC(O[Si](C)(C)C(C)(C)C)C1C(=O)NC1C1CCCC(OCCCl)C1O (configuration not stated) | 97 to 100 °C
Nc1ncnc2c1nc(Br)n2Cc1ccccc1 | 199 to 201 °C
COc1ccc(N2CCN(c3c(C)c(C)c4c(c3C)C(O)(c3ccc(Cl)cc3)C(C)(C)O4)CC2)cc1 (configuration not stated) | 153 to 155 °C
Cc1nn(-c2ccccn2)cc1COc1ccc(COc2ncccc2CC(=O)O)cc1 | 150 to 151 °C
Nc1nc2ccccc2c2c1ncn2CCNC(=O)CCc1ccccc1 | 254 to 256 °C
COc1ccc(Nc2ncc(Br)c(Nc3ccc(OC)c(OC)c3OC)n2)c(OC)c1OC | 186 to 191 °C
COc1cc(Nc2c(C#N)cnc3cc(-c4ccc5ccccc5c4)ccc23)c(Cl)cc1Cl | 243 to 244 °C
C=CCOc1ccc(C(=O)O[C@H]2CC[C@H](C(=O)CCCCCBr)CC2)cc1 | 56 °C
COc1ccc2c(C(=O)c3ccc(OC4CCCCC4N(C)C)cc3)c(-c3ccc(OCCN4CCCC4)cc3)sc2c1 (configuration not stated) | 61 to 64 °C
O=C(O)c1ccccc1Sc1cccc(OCc2ccc3ccccc3n2)c1 | 169 to 171 °C
CCOC(=O)Cc1cnn(CC)c1O | 107 to 108 °C
COc1ccc(OCC(=O)O)c2c(=O)c3ccccc3sc12 | 223 to 225 °C
O=[N+]([O-])c1ccc2[nH]cc(Cc3cccnc3)c2c1 | 154 to 156 °C
CC(C)Nc1c(-c2ccc(C#N)cc2)c(Cl)nc2ncnn12 | 190 °C
Cc1cc(Cl)ccc1N=CN(C)SN(C1CCCCC1)C1CCCCC1 | 110 to 111 °C
Cn1c2ccccc2c2cc(CN3CCOCC3)sc21 | 102 to 106 °C
COc1cc2c(Nc3ccc(Sc4nccn4C)c(Cl)c3)c(C#N)cnc2cc1-c1ccc(CN2CCOCC2)cc1 | 260 to 262 °C
Cc1cccc(NC(=O)NC2N=C(c3ccccc3)c3ccccc3N(Cc3cc(C)ccn3)C2=O)c1 (racemic) | 212 to 213 °C

Structure (SMILES) | melting point
O=C1COC2(CCN(CCc3ccccc3)CC2)CN1 | 140 to 141 °C
CN(C)C(=O)OCc1nc([N+](=O)[O-])c(C#N)n1C | 85 to 88 °C
N#Cc1cccc(CN2CCc3cc(Cl)ccc32)c1 | 73.5 to 75.5 °C
O=C(CC1CCc2ccccc2C1=O)c1ccccc1 (configuration not stated) | 73 to 76 °C
O=C(c1ccc2nonc2c1)N(C1CCOCC1)C1CC1 | 108 to 109 °C
Nc1ncnc2c1c(-c1ccc(Oc3ccccc3)cc1)c(Br)n2C1CCOC1 (configuration not stated) | 205 to 206 °C
COc1cc2c3ccc(OC)c(OC)c3n(Cc3ccc(C(F)(F)F)cc3)c2cc1OC | 145 to 146 °C
CCCCCCCCCCCCCCCCOCC(CO)Oc1ccon1 (configuration not stated) | 50 to 51 °C
CCc1c(C(=O)C(N)=O)c2c(N)cccc2n1Cc1ccccc1 | 140 to 144 °C
Nc1nc(F)nc2c1ncn2C1OC(COCc2ccccc2)C(OCc2ccccc2)C1OCc1ccccc1 (configuration not stated) | 157 to 159 °C
CC(=O)OC1CSC(Oc2cncc(-c3ccc(C#N)cc3C)c2)C(OC(C)=O)C1OC(C)=O (configuration not stated) | 136 to 138 °C
CC(=O)OCCCc1cc(C=C2SCN(C)C2=O)cc(CCCOC(C)=O)c1O | 112 to 116 °C
O=C(NC1CCN(CCCOc2ccc3ccc(=O)oc3c2)CC1)c1ccccc1 | 157 to 158 °C
ClCc1nnc2n1-c1ccccc1C(c1ccccc1Cl)=NC2 | 186 to 188 °C
N=C(N)c1ccc(C(=O)N[C@@H](CO)Cc2ccc(OCC(=O)O)cc2)cc1 | 238 to 240 °C
COc1cc(NCCCCCCN2CCN(C(=O)OCc3ccccc3)CC2)c2nccc(C)c2c1 | 73 to 73.5 °C
Oc1ccc(Cc2ccc(OCc3ccccc3)cc2)cc1 | 95 to 96 °C
CC(=O)Cn1nc(C)oc1=O | 55 to 58 °C
CN(C)Cc1ccc(-c2ccc(C(=O)c3ccc(Br)cc3)c(O)c2)cc1 | 85 to 88 °C
Cc1cccc(COc2cccc(OCc3nc(-c4ccccc4)oc3C)c2)c1C(=O)O | 144 to 145 °C
O=C(c1c(F)cccc1F)N1CS(=O)(=O)CN(c2ccc(Cl)cc2)C1=O | 274 to 275 °C
N#Cc1ccc(-c2ccc(Br)cc2)cc1 | 147 to 148 °C
COC1CC(n2cc(C=CBr)c(=O)[nH]c2=O)OC1CCl (configuration not stated) | 145 °C
COc1ccc(NC(=O)c2ccc(-c3ccc(-c4nc(N)no4)cc3C)cc2)cc1N1CCN(C)CC1 | 169 to 171 °C
O=Cc1ccc2c(c1)ncn2-c1cccc(-c2cccnc2)c1 | 200 to 202 °C
O=C1N(Cc2ccc(OCc3ccccc3)cc2)c2ccccc2C12COc1cc3c(cc12)OCCO3 (configuration not stated) | 87 to 89 °C

The next lines start with the values.

melting point | Structure (SMILES)
101 to 102 °C | CC(=O)C(CC(C)C)NC(=O)CCOc1ccc([N+](=O)[O-])cc1 (configuration not stated)
94 °C | CCCC1CCc2cc(NC(=O)OCC)ccc2O1 (configuration not stated)
151 to 153 °C | CNC(=O)c1nnn(Cc2ccccc2)c1N
228 to 230 °C | CCCCc1nc2c(N)nc3cccnc3c2n1CCNC(C)=O
52 to 54 °C | CC(C(=O)O)c1ccc(O[Si](C)(C)C(C)(C)C)cc1 (configuration not stated)
101 to 102 °C | CS(=O)(=O)c1ccc2c(c1)c1c(n2Cc2ccc(Cl)cc2)C(CC(=O)O)CCC1 (configuration not stated)
168 to 170 °C | Cc1noc(NS(=O)(=O)c2ccsc2C(=O)Nc2ccccc2)c1Br
110 to 112 °C | CCCc1cc(Br)c2oc(Cc3ccc(OC)cc3)c(C)c2c1O
89 to 90 °C | CCC1(C)Cc2c(C)c(Cl)c(C=O)c(C)c2C1 (configuration not stated)
147 to 149 °C | Cc1noc(NS(=O)(=O)c2ccsc2C/C=C/c2ccc3c(c2)OCO3)c1Br
133 to 134 °C | C=CCCn1c(C(=O)c2cc(C)cc(C#N)c2)c(C(C)C)c(=O)[nH]c1=O
236 to 238 °C | CCN(CC)c1ccc(C2(c3ccc(N(C)C)cc3N(C)C)OC(=O)c3c(Cl)c(Cl)c(Cl)c(Cl)c32)c(C)c1 (configuration not stated)
74 to 75 °C | CC(C)(C)OC(=O)NCCOc1ccccc1OCCBr
93 to 94 °C | CCCCS(=O)(=O)C1CC(=O)N1CC(=O)CCc1ccccc1 (configuration not stated)
137 to 140 °C | Cc1ccc(C(=O)C(=NN)c2ccc(C)cc2)cc1
179 °C | COc1ccc(-c2nc(S(=O)(=O)c3cccs3)[nH]c2-c2ccc(OC)cc2)cc1
163 to 164 °C | CCCCc1c(/C=C/C(=O)O)ccc2cc(OC)ccc12
194 to 196 °C | CN(C)c1ccc(CNC(=O)[C@@H](Cc2ccccc2)NC(=O)CCC(=O)O)cc1
208 °C | CC=CC(=O)Nc1n[nH]c2cc(C(F)(F)F)ccc12
85 °C | CCC(C)N(C)C(=O)c1cc2ccccc2c(-c2ccccc2F)n1 (configuration not stated)
179 to 181 °C | Cc1cc2nc(S(=O)Cc3ccccc3N)[nH]c2cc1C (configuration not stated)
204 to 206 °C | CC1CC(=O)N(C)N=C1c1ccc2c(c1)OCC(=O)N2 (configuration not stated)

melting point | Structure (SMILES)
165 °C | CN1C(=O)N(c2nnc(C(C)(C)C)s2)C(=O)C1(C)OC(N)=O (configuration not stated)
160 to 162 °C | CN1CCN(c2cccc3c(S(=O)(=O)c4ccccc4)c[nH]c23)CC1
193 to 195 °C | CCS(=O)(=O)c1ccc(N)cc1S(=O)(=O)NC(C)(C)C
> 290 °C | CN1C(=O)C(c2cn(C)c3ccccc23)=C(c2cn(C)c3ccccc23)C1=O
105 to 107 °C | Cn1c(Cc2ccccc2)noc1=O
325 °C | CCn1cc(C(=O)O)c(=O)c2cc(Cl)c(N3CCCC3)cc21
135 to 137 °C | CCOC(=O)c1ccc(NC(=O)CC(CNS(=O)(=O)c2ccc(C)cc2)c2ccccc2)cc1 (configuration not stated)
101 to 104 °C | CCOC(=O)C(CCCN(C)CCc1ccc(OC)c(OC)c1)(C(=O)OCC)c1ccc(OC)c(OC)c1
85 to 87 °C | CCC(CC)(CC)n1ncc(C(=O)NC)c1C#N
196 to 198 °C | CC(=O)NC[C@H]1CN(c2ccc(C(=O)c3cnc4ccccn34)c(F)c2)C(=O)O1
46 to 47 °C | Cc1cc(C)cc(SCC(=O)c2ccc(C(C)C)cc2)c1
94 to 95 °C | CCCc1c(OCC(O)COc2cc(N)c(C)cc2Cl)ccc(C(C)=O)c1O (configuration not stated)
114 to 115 °C | CCCC(=O)c1cnc2c(C)cccc2c1Nc1ccc(OC)cc1C
69 to 70 °C | CCCCCCCCS(=O)(=O)C(Cc1ccc(OCCN2CCCCC2)cc1)C(=O)NO (configuration not stated)
175 to 176 °C | CSCC[C@@H](NC(=O)[C@H](Cc1ccc(O)cc1)NC(=O)OC(C)(C)C)C(=O)NCC(=O)Oc1c(Cl)c(Cl)c(Cl)c(Cl)c1Cl
90 to 91 °C | CNC(=O)/C(=N/OC)c1ccccc1Oc1cc(C)cc(C)c1
226 to 227 °C | CC(C)Cn1c(CNC(=O)OC(C)(C)C)c(-c2ccc(Cl)cc2)c2cc(C(=O)O)ccc2c1=O
91 °C | CC(C)(C)c1cc(S[C@@H]2CCCC[C@H]2O)cc(C(C)(C)C)c1O (relative stereo)
103 to 104 °C | COC(=O)C1C2C=CC(C2)C1N(C)S(=O)(=O)c1ccc(OCc2ccccc2)cc1 (configuration not stated)
201 to 203 °C | CC1=C(C(=O)OC(C)C)C(c2cccc([N+](=O)[O-])c2)n2c(cc(=O)n2C(=O)c2ccccc2)N1 (configuration not stated)
58 to 60 °C | CC(C)(C(=O)Nc1cccc(C(F)(F)F)c1)N1COC(C(F)F)=C(c2ccccc2)C1=O
122 °C | Cc1ccccc1CNC[C@@H]1C[C@@H](S)CN1S(=O)(=O)c1ccc2ccccc2c1
